{"source": "patent US5340829A", "about": "“Immunoregulatory agents” (priority 1992, dated 1994)", "key": {"[1]": {"system": "delayed type hypersensitivity (DTH) response to DNFB", "assay": "Delayed-type hypersensitivity (DTH) ear swelling, DNFB-primed mice (Experiments 2-3)", "format": "in vivo, C57BL/6J mice", "protocol": "(§1) Delayed type hypersensitivity, which involves the participation of T lymphocytes and macrophages, can be studied in vivo by exposing (or priming) a mammal to a novel antigen and then reexposing (or challenging) the primed animal to the same antigen four to seven days later. The classic DTH response includes symptoms of inflammatory response, induration and erythema, which peak at 24 to 48 hours after challenging and then decline slowly.\n(§2) Eight-week old female C57BL/6J mice (Jackson Labs) were divided into primed and unprimed groups. The five mice in the primed group were primed to 2,4-dinitrofluorobenzene (DNFB; Sigma Chemical Co., Grade 1, approx. 98%, Lot 129C-0065, No. d-6879) by painting their shaved ventral skins with 0.1 ml of 0.5% DNFB in ethanol:acetone (3:1). The five mice in the unprimed group were shaved and topically painted on their ventral skins with the ethanol:acetone (3:1) vehicle alone. The mice in both groups were challenged with DNFB four days later. A suitable patch of skin, the ear, was chosen for challenging. One ear was designated for challenging and the other to serve as a control. The thickness of each ear across the pinna was measured using micrometer calipers. The first measurements were taken four days after priming and are plotted as day 0 in FIG. 13. Next, each mouse was subjected to the following challenge regimen: one ear was challenged with one drop of 0.35% DNFB in olive oil, and the other (unchallenged control) ear was exposed to olive oil alone. The ear thicknesses (ET) of the challenged ear and the unchallenged ear were measured daily, and the swelling responses are plotted in FIG. 13 as: [formula]\n(§3) Three groups of eight-week old female C57BL/6J mice were primed to DNFB as previously described. […] Six hours later the first sets of ear measurements were taken, and one ear of each mouse was challenged.\nThe data in FIG. 15 is derived from three experiments using C57BL/6J mice. The measurements were taken at the time of maximal swelling, i.e., […] after challenge, and each point represents at least 9 mice."}, "[2]": {"system": "anti-PHI.X 174 bacteriophage antibodies", "assay": "Phage inhibition assay of serum antibody after immunization with bacteriophage PHI.X 174 (Experiment 7)", "format": "in vivo, mice", "conditions": "sorbinil daily for five days", "text": "Antibodies generated against the bacteriophage were quantitated by a phage inhibition assay, which is based on the observation that antibodies specific for the bacteriophage will inhibit the ability of the bacteriophage to lyse bacteria. Ochs, H. D., et al., Disorders of the B-cell system, in Immunologic Disorders in Infants and Children, E. R. Stiehm, et al., eds., W. B. Sanders, Co. Philadelphia, p. 239, 1980. The data was expressed as Kv values derived according to the following formula: Rate of phage inactivation, Kv D/T×1n Po/P, where D=reciprocal of antibody dilution, T=60 minutes, Po=initial number of PFU, and P=number of plaques at 60 minutes.\nBeginning with one week after this primary immunization mice were bled weekly, and serum samples from individual mice were tested for the ability to inhibit bacteriophage lysis of bacteria."}, "[3]": {"system": "spleen cells stimulated with Concanavalin A (Con A)", "assay": "Spleen cell proliferative response to Con A after oral sorbinil (Experiment 8)", "format": "in vivo, mice", "conditions": "for activation at 11 mg/kg/day: Mus musculus, read-out: Enhancement of proliferative response", "protocol": "The proliferative response of T lymphocytes to the Con A mitogen requires the obligatory participation of adherent accessory cells, which are presumed to be macrophages.\nMice received sorbinil orally for one, two, or three days prior to sacrifice. The dosage was 11 mg/kg per day. Control mice received the buffer vehicle alone. Mice from these four groups were sacrificed and their spleens harvested. The spleens were teased into single-cell suspensions that were cultured with different concentrations of Con A for three or four days. One microcurie of tritiated thymidine was added to each culture 18 hours before the cultures were terminated. Incorporation of the tritiated thymidine into cellular DNA was measured by using a liquid scintillation counter. The results of this experiment are presented in FIGS. 20 and 21 and are summarized as follows: […]"}, "Mouse P338D cells": {"system": "Mouse P338D cells", "assay": "Release of 3H-arachidonic acid metabolites, A23187-stimulated cells (Experiment 9)", "format": "cell-based", "conditions": "10^-6 M/L sorbinil; stimulated by A23187", "text": "The assay protocol was as described generally in Henderson, W. R., and S. J. Klebanoff, J. Biol. Chem. 258: 13522-13527, 1983, which is hereby incorporated by reference."}, "Human mononuclear cells": {"system": "Human mononuclear cells", "assay": "PMA-stimulated superoxide production (Experiment 11)", "format": "cell-based", "conditions": "concentrations as high as 10^-5 M/L; PMA stimulated normal cells", "text": "Human mononuclear cells were studied for superoxide production in culture in the presence and absence of sorbinil. Superoxide production was stimulated in normal cells using the mitogen phorbol myristate acetate (PMA)."}, "Normal mouse thymocytes": {"system": "Normal mouse thymocytes", "assay": "3H-thymidine incorporation, PHA plus IL-1 stimulated thymocytes (Experiment 12)", "format": "cell-based", "conditions": "concentrations as high as 10^-6 M/L; PHA in the presence of preformed IL-1"}, "Mouse peritoneal cells": {"system": "Mouse peritoneal cells", "assay": "3H-thymidine incorporation in peritoneal cells, with or without LPS (Experiment 15)", "format": "cell-based", "conditions": "concentrations as high as 10^-6 M/L; control cells or cells stimulated using LPS"}, "Human monocytes": {"system": "Human monocytes", "assay": "Monocyte adherence in vitro (Experiment 16)", "format": "cell-based", "conditions": "concentrations as high as 10^-6 M/L", "text": "Human monocytes were isolated and tested for adherence in vitro in the presence and absence of sorbinil."}, "[4]": {"system": "spleen cells from irradiated C57B6 mice with thymocytes from Balb C mice", "assay": "Mixed lymphocyte response (Experiment 19)", "format": "cell-based", "conditions": "concentrations as high as 10^-5 M/L"}, "[5]": {"system": "swelling of popliteal lymph nodes", "assay": "Popliteal lymph node assay (Experiment 20)", "format": "in vivo", "conditions": "Balb C mice injected in the foot pad with cells from C57BL6 mice", "protocol": "In vivo, popliteal lymph node assays were conducted on normal Balb C mice."}, "[6]": {"system": "ear swelling in response to PMA", "assay": "Ear swelling in response to PMA (Experiment 21)", "conditions": "in vivo"}, "[7]": {"system": "delayed-type hypersensitivity (DTH)", "assay": "DTH ear swelling, comparison of sorbinil, tolrestat, WF-3681 and NSAIDs (Experiment 23, TABLE 5)", "format": "in vivo, mice", "protocol": "as §1, §2, §3\nThe Table has 4 columns, listing (left to right) each drug tested in column 1, drug concentrations in column 2, relative swelling in column 3, and effectiveness in column 4."}}, "note": "Entries after “also recorded” stand apart in the source; their conditions may differ. Read-outs that look alike come from different tables or passages of the source."}
{"smiles": "O=C1NC(=O)[C@@]2(CCOc3ccc(F)cc32)N1", "note": "[Sorbinil, 4(S)-2,3-dihydro-6-fluorospiro-(4H-1-benzopyran-4,4'-imidazolidine)-2',5'-dione]", "values": [{"measurement": "ED100", "setting": "[1]; Mus musculus, extrapolation from least squares fit line, FIG. 15, three experiments, time of maximal swelling, i.e., 2 hours after challenge, read-out: Concentration at which maximum inhibition of DTH response (no swelling) would occur", "result": 13.5, "unit": "mg/kg"}, {"measurement": "Ear swelling (in words)", "setting": "[1]; sorbinil 10 mg/kg orally", "result": "almost complete inhibition of ear swelling"}, {"measurement": "Ear swelling / DTH response (in words)", "setting": "[1]; sorbinil orally 10, 1.0 or 0.1 mg/kg daily, DNFB-primed and challenged C57BL/6J mice", "result": "Swelling was inhibited; also recorded: dose dependent inhibition of ear swelling; also recorded: inhibits the inflammatory response; also recorded: dose dependent inhibition of the delayed-type hypersensitivity response"}, {"measurement": "Kv, rate of phage inactivation (serum titer of anti-PHI.X 174 antibodies)", "setting": "[2]; one week after priming", "result": "5.0±2.4"}, {"measurement": "Kv, rate of phage inactivation (serum titer of anti-PHI.X 174 antibodies)", "setting": "[2]; two weeks after primary immunization", "result": "18.4±11.4"}, {"measurement": "activation at 11 mg/kg/day", "setting": "[3]; 72 h", "result": 9, "unit": "%"}, {"measurement": "activation at 11 mg/kg/day", "setting": "[3]; 96 h", "result": "3 to 30", "unit": "%"}, {"measurement": "Reduction of proliferative response", "setting": "[3]; cultures harvested day four, sorbinil three days prior to harvest", "result": "25-58%"}, {"measurement": "Reduction of proliferative response", "setting": "[3]; cultures harvested day four, sorbinil two days prior to sacrifice", "result": "5 to 18", "unit": "%"}, {"measurement": "Reduction of proliferative response", "setting": "[3]; cultures harvested day three, sorbinil one day prior to sacrifice, 1 μmg of Con A/ml", "result": 25, "unit": "%"}, {"measurement": "Reduction of proliferative response", "setting": "[3]; cultures harvested day three, sorbinil one day prior to sacrifice, Con A 2 μmg/ml", "result": 18, "unit": "%"}, {"measurement": "Reduction of proliferative response", "setting": "[3]; cultures harvested day three, sorbinil three days prior to sacrifice, Con A 2 μmg/ml", "result": 30, "unit": "%"}, {"measurement": "Reduction of proliferative response", "setting": "[3]; cultures harvested day three, sorbinil three days prior to sacrifice, Con A 5 μmg/ml", "result": 27, "unit": "%"}, {"measurement": "Reduction of proliferative response", "setting": "[3]; cultures harvested day three, sorbinil two days prior to sacrifice, 1 μmg of Con A/ml", "result": 22, "unit": "%"}, {"measurement": "Reduction of proliferative response", "setting": "[3]; cultures harvested day three, sorbinil two days prior to sacrifice, Con A 2 μmg/ml", "result": 11, "unit": "%"}, {"measurement": "Proliferative response to the mitogen Con A (in words)", "setting": "[3]; sorbinil 11 mg/kg per day orally prior to sacrifice", "result": "reduced proliferative response; also recorded: inhibits the proliferative response of T-cells"}, {"measurement": "Kinetics of the proliferative response of spleen cells to Con A", "setting": "[3]; sorbinil one, two, or three days prior to spleen cell harvesting", "result": "not affected"}, {"measurement": "Dose response pattern to Con A", "setting": "[3]; sorbinil-treated vs buffer-treated mice", "result": "similar"}, {"measurement": "Release of arachidonic acid metabolites", "setting": "Mouse P338D cells", "result": "no effect"}, {"measurement": "Production of superoxide", "setting": "Human mononuclear cells", "result": "no effect"}, {"measurement": "Incorporation of 3H-thymidine", "setting": "Normal mouse thymocytes", "result": "no effect"}, {"measurement": "3H-thymidine incorporation", "setting": "Mouse peritoneal cells", "result": "no significant effect"}, {"measurement": "Adherence of monocytes", "setting": "Human monocytes", "result": "no effect"}, {"measurement": "Mixed lymphocyte response", "setting": "[4]", "result": "no effect"}, {"measurement": "Swelling of popliteal lymph nodes", "setting": "[5]", "result": "no effect"}, {"measurement": "Swelling of mouse ears in response to PMA", "setting": "[6]", "result": "no effect"}, {"measurement": "effectiveness (1 - R) (100%)", "setting": "[7]; 6 μM, single dose after challenge", "result": 39, "unit": "%"}, {"measurement": "effectiveness (1 - R) (100%)", "setting": "[7]; 6 μM, single dose before challenge", "result": 32, "unit": "%"}, {"measurement": "effectiveness (1 - R) (100%)", "setting": "[7]; concentration 6 μM", "result": 34, "unit": "%"}, {"measurement": "effectiveness (1 - R) (100%)", "setting": "[7]; concentration 6 μM, listed as sorbinil", "result": "about 30%"}, {"measurement": "effectiveness (1 - R) (100%)", "setting": "[7]; concentration 10 μM", "result": 70, "unit": "%"}, {"measurement": "Effect on DTH as measured by ear swelling (in words)", "setting": "[7]; mouse, in vivo", "result": "strong and substantially identical inhibitory effect; also recorded: effective, as a single dose, when administered either before or after the antigenic challenge"}]}
